Assay results taken from patent US20160024083A1, “COMPOUNDS AND METHODS FOR TREATING CANCERS” (HEALTH RESEARCH, INC., priority 2013, published 2016).

What was measured:
MDA-MB-231 = experiment: Inhibition of growth / toxicity in non-target MDA-MB-231 cells; assay type: cell-based; settings: Homo sapiens
Procedure: (§1) This example provides a table (below) of the compounds of the present disclosure and their activity towards four different cell lines (i.e., CWR22R, HeLa, PC3, and MDA-MB-231). The IC50 for inhibition of growth is divided into 4 categories: A<1 μM, B 1-5 μM, C 5-20 μM, D>20 μM.
(§2) All compounds were tested for toxicity using 4 cells lines, target cells—CWR22R and non-target cells, Hela, PC3 and MDA-MB-231 (FIGS. 1A-F).

PC3 = experiment: Inhibition of growth / toxicity in non-target PC3 cells; assay type: cell-based; settings: Homo sapiens, PC-3
Procedure: as §1, §2

CWR22R = experiment: cells; assay type: cell-based; settings: for IC50: Homo sapiens, 22Rv1, CWR22R, read-out: IC50 for inhibition of growth
Procedure: FIG. 21. Toxicity of PLA1055 to CWR22R cells in vitro depending on time of incubation. PLA1055 was added to CWR22R in full range of concentrations for the periods of time shown on the right. After that drug containing media were changed for drug free and survival of cells was detected at 72 hours after start of treatment using Alamar Blue assay (Promega).
as §1, §2
(§3) LC50 data of in vitro 72 hours cytotoxicity assay are included in this table for comparison.
An in vitro experiment was run to detect the concentration of PLA1055 needed to kill all tumor cells in vitro (LC90) during different periods of time (30 minutes-72 hours, FIG. 21)).

Hela = experiment: Inhibition of growth / toxicity in non-target Hela cells; assay type: cell-based; settings: Homo sapiens, HeLa
Procedure: as §1, §2

[1] = Plasma concentration (PK) after intravenous and intraperitoneal injections; assay type: in vivo
[2] = Tissue drug concentrations (tumor, liver, plasma) in treated CWR22R tumor-bearing mice; assay type: in vivo
Procedure: (§4) We tested these compounds in an in vivo efficacy experiment using model of CRPC in SCID mice, CWR22R. Two compounds, PLA1079 and 1125, which were synthesized in the amount of 500 mg were tested in full scale experiment with either 5 IV daily injections or 10 IP daily injections. After 5 IP or IV injections intra-tumor concentration of the compounds were measured in few mice from this experiment.
Two other compounds, PLA1148 and 1098 (PK testing in FIGS. 8 and 9) were tested in a small scale efficacy experiment. Upon PK testing of the compound PLA1148 one mouse was injected twice with 10 min interval. However the concentration of the drug in plasma of this mouse was not twice, but >4 times higher than in mice injected once. […] It was decided to utilize this observation in an attempt to get higher plasma and tumor concentration of both compounds. Therefore in the pilot efficacy experiment in the same model of CWR22R cells mice were treated with 2 IP injections with 10 minute interval. Treatment with PLA1098 was carried out for two days. […] However this is so far the highest concentration found in tumor. […]
as §3

CWR22R tumors = experiment: In vivo efficacy, subcutaneous xenografts of CWR22R cells in SCID mice; settings: CWR22R in SCID mice; 5 IV daily injections or 10 IP daily injections
Procedure: as §4
Two other compounds, PLA1148 and 1098 (PK testing in FIGS. 8 and 9) were tested in a small scale efficacy experiment. Upon PK testing of the compound PLA1148 one mouse was injected twice with 10 min interval. However the concentration of the drug in plasma of this mouse was not twice, but >4 times higher than in mice injected once. […] It was decided to utilize this observation in an attempt to get higher plasma and tumor concentration of both compounds. Therefore in the pilot efficacy experiment in the same model of CWR22R cells mice were treated with 2 IP injections with 10 minute interval. Treatment with PLA1098 was carried out for two days. […] However this is so far the highest concentration found in tumor.
Pilot efficacy experiments were run for compounds: PLA1163, PLA1148 using the same model of subcutaneous xenografts of CWR22R cells in SCID mice (FIGS. 18 and 19).

[3] = Aqueous solubility (pH 7.4); assay type: physicochemical
[4] = Metabolic stability in the presence of mouse liver microsomes; assay type: in vitro ADME; settings: for metabolic stability, % left: after 30 minute incubation with mouse liver microsome
[5] = single IV administration of 50 mg/kg (FIG. 20)
[6] = classification (Stable/Moderate/Unstable), lines whose second value is in %
[7] = in %, table title: Metabolic stability and solubility, % left after 30 minute incubation with mouse liver microsome

For `N#Cc1ccc2c(c1)c1c(C(N)=O)cccc1n2CCCF` [Compound 19-2], the IC50 (MDA-MB-231) was > 20 µM, the IC50 (PC3) was > 20 µM and the IC50 (CWR22R) was < 1 µM. The IC50 (Hela) was > 20 µM.
With `CCCn1c2ccc(Br)cc2c2cc(C(C)=O)ccc21` [Compound 20-1, 1-(6-Bromo-9-propyl-9H-carbazol-3-yl)-ethanone] the IC50 (MDA-MB-231) was > 20 µM, the IC50 (PC3) was > 20 µM and the IC50 (CWR22R) was 5 to 20 µM. The IC50 (Hela) was > 20 µM.
For `CCCn1c2ccc(Cl)cc2c2cc(C(C)=O)ccc21` [Compound 20-2], the IC50 (MDA-MB-231) was > 20 µM, the IC50 (PC3) was > 20 µM and the IC50 (CWR22R) was > 20 µM. For the same compound, the IC50 (Hela) was > 20 µM.
With `CCCn1c2ccc(OC)cc2c2cc(C(C)=O)ccc21` [Compound 21-1, 1-(6-Methoxy-9-propyl-9H-carbazol-3-yl)-ethanone] the IC50 (MDA-MB-231) was > 20 µM, the IC50 (PC3) was > 20 µM and the IC50 (CWR22R) was 5 to 20 µM. For the same compound, the IC50 (Hela) was > 20 µM.
With `CCCn1c2ccccc2c2cc(C#N)ccc21` [Compound 22-2] the IC50 (MDA-MB-231) was > 20 µM, the IC50 (PC3) was > 20 µM and the IC50 (CWR22R) was < 1 µM. For the same compound, the IC50 (Hela) was > 20 µM.
For `CCCn1c2ccc(C(C)=O)cc2c2cc(C(N)=O)ccc21` [Compound 23-1, 6-Acetyl-9-propyl-9H-carbazole-3-carboxylic acid amide], the IC50 (MDA-MB-231) was 5 to 20 µM, the IC50 (PC3) was > 20 µM and the IC50 (CWR22R) was 5 to 20 µM. The IC50 (Hela) was > 20 µM.
With `CCCn1c2ccc(C(C)=O)cc2c2c(C#N)cccc21` [Compound 25-1, 6-Acetyl-9-propyl-9H-carbazole-4-carbonitrile] the IC50 (MDA-MB-231) was > 20 µM, the IC50 (PC3) was > 20 µM and the IC50 (CWR22R) was 1 to 5 µM. For the same compound, the IC50 (Hela) was > 20 µM.
For `N#Cc1cnc2c(c1)c1ccccc1n2CCCF` [Compound 25-3], the IC50 (MDA-MB-231) was > 20 µM, the IC50 (PC3) was > 20 µM and the IC50 (CWR22R) was 1 to 5 µM. For the same compound, the IC50 (Hela) was > 20 µM.
In the case of `N#Cc1ccc2c(c1)c1ccccc1n2CCCF` [Compound 26-1, 9-(3-Fluoropropyl)-9H-carbazole-3-carbonitrile], the IC50 (MDA-MB-231) is reported as > 20 µM, the IC50 (PC3) is reported as > 20 µM and the IC50 (CWR22R) is reported as < 1 µM. The IC50 (Hela) was > 20 µM.
For `CCCn1c2ccc(C(C)=O)cc2c2c(O)cccc21` [Compound 27-1, 1-(5-Hydroxy-9-propyl-9H-carbazol-3-yl)-ethanone], the IC50 (MDA-MB-231) was > 20 µM, the IC50 (PC3) was > 20 µM and the IC50 (CWR22R) was > 20 µM. For the same compound, the IC50 (Hela) was > 20 µM.
With `CC(=O)c1ccc2c(c1)c1ccccc1n2CCCF` [PLA1055] the “plasma concentration at 8 hours” value [1, 5] was “below 1 uM”, the “time up to which compound was detected in plasma” value [1, 5] was “up to 24 hours” and the CC50 (CWR22R) was 0.04 µM. The LC90 (CWR22R; CWR22R, incubation 4-8 hours, survival at 72 hours, Alamar Blue assay) was 2.5 µM.
For `FCCCn1c2ccccc2c2cc(-c3nnco3)ccc21` [PLA1125], the “Tumor concentration” value ([2]; 100 mg/kg, IP/IV) was 7 to 10 nM, the “intra-tumor concentration relative to LC50% in vitro” value ([2]; mouse, in vivo) was “significantly below LC50%” and the “plasma concentration time course” value ([1]; after IV and IP injections, 50-100 mg/kg) was “fast reduction of concentration during the first hour”. For the same compound, the “bioavailability through IP injection” value ([1]; plasma concentrations similar or even higher after IP than IV, 50-100 mg/kg) was “very high”, the in vivo efficacy (CWR22R tumors) was “absence of in vivo efficacy” and the CC50 (CWR22R) was 0.1 µM.
With `O=c1[nH]ccc2c1ccc1c2c2ncccc2n1CCCF` [PLA1181] the “Aqueous Solubility Classification” value [3] was “Low” and the “Aqueous Solubility Classification” value ([3]; pH 7.4) was “Low”.
For `O=C1COc2c(ccc3c2c2ncccc2n3CCCF)N1` [PLA1183], the “Aqueous Solubility Classification” value [3] was “Moderate” and the “Aqueous Solubility Classification” value ([3]; pH 7.4) was “Low”.
For `O=c1[nH]c2ccc3c(c4ccccc4n3CCCF)c2o1` [PLA1190], the “Aqueous Solubility (pH 7.4)” value ([3]; pH 7.4) was 3.5 μM, the “Aqueous Solubility Classification” value ([3]; pH 7.4) was “Low” and the “metabolic stability, % left” value [4] was 70%. The “Metabolic stability, % left after 30 min with mouse liver microsomes” value (shortened to “Metabolic stability, % left after 30 min”) [4, 6] was “Stable” and the “Metabolic stability, % left after 30 min” value [4, 7] was 77%.
With `CC(=O)c1ccc2c(c1)c1c(C(N)=O)cccc1n2CCCF` [PLA1191] the “Aqueous Solubility (pH 7.4)” value ([3]; pH 7.4) was 130 μM, the “Aqueous Solubility Classification” value ([3]; pH 7.4) was “High” and the “Metabolic stability, % left after 30 min” value [4, 6] was “Moderate”. For the same compound, the “Metabolic stability, % left after 30 min” value [4, 7] was 30%.
In the case of `O=c1c2ccc3c(c2ccn1CCO)c1ccccc1n3CCCF` [PLA1192], the “Aqueous Solubility (pH 7.4)” value ([3]; pH 7.4) is reported as 15 μM, the “Aqueous Solubility Classification” value ([3]; pH 7.4) is reported as “Moderate” and the “Aqueous Solubility Classification” value [4, 6] is reported as “Moderate”. For the same compound, the “Metabolic stability, % left after 30 min” value [4, 7] was 27%.
In the case of `O=c1c2ccc3c(c2ccn1CCN1CCCC1)c1ccccc1n3CCCF` [PLA1193], the “Aqueous Solubility (pH 7.4)” value ([3]; pH 7.4) is reported as 140 μM, the “Aqueous Solubility Classification” value ([3]; pH 7.4) is reported as “High” and the “Metabolic stability, % left after 30 min” value [4, 6] is reported as “Unstable”. The “Metabolic stability, % left after 30 min” value [4, 7] was 3%.
In the case of `CN1Cc2c(ccc3c2c2ccccc2n3CCC(F)F)C1=O` [PLA1194], the “Aqueous Solubility (pH 7.4)” value ([3]; pH 7.4) is reported as 18 μM, the “Aqueous Solubility Classification” value ([3]; pH 7.4) is reported as “Moderate” and the “Aqueous Solubility Classification” value [4, 6] is reported as “Moderate”. For the same compound, the “Metabolic stability, % left after 30 min” value [4, 7] was 28%.
For `N#Cc1cccc2c1c1c3cc[nH]c(=O)c3ccc1n2CCCF` [PLA1195], the “Aqueous Solubility (pH 7.4)” value ([3]; pH 7.4) was 2.7 μM, the “Aqueous Solubility Classification” value ([3]; pH 7.4) was “Low” and the “Metabolic stability, % left after 30 min” value [4, 6] was “Moderate”. For the same compound, the “Metabolic stability, % left after 30 min” value [4, 7] was 63%.
In the case of `NC(=O)c1cccc2c1c1c3cc[nH]c(=O)c3ccc1n2CCCF` [PLA1196], the “Aqueous Solubility (pH 7.4)” value ([3]; pH 7.4) is reported as 26 μM, the “Aqueous Solubility Classification” value ([3]; pH 7.4) is reported as “Moderate” and the “Aqueous Solubility Classification” value [4, 6] is reported as “Moderate”. The “Metabolic stability, % left after 30 min” value [4, 7] was 65%.
With `O=C1CCc2c1ccc1c2c2c(F)cccc2n1CCCF` [PLA1197] the “Aqueous Solubility (pH 7.4)” value ([3]; pH 7.4) was 4.0 μM, the “Aqueous Solubility Classification” value ([3]; pH 7.4) was “Low” and the “metabolic stability, % left” value [4] was 77%. The “Metabolic stability, % left after 30 min” value [4, 6] was “Stable” and the “Metabolic stability, % left after 30 min” value [4, 7] was 73%.
With `CC(=O)c1ccc2c(c1)c1c3c(ccc1n2CCCF)C(=O)CC3` [PLA1198] the “Aqueous Solubility (pH 7.4)” value ([3]; pH 7.4) was 2.5 μM, the “Aqueous Solubility Classification” value ([3]; pH 7.4) was “Low” and the “Metabolic stability, % left after 30 min” value [4, 6] was “Moderate”. For the same compound, the “Metabolic stability, % left after 30 min” value [4, 7] was 46%.
With `O=C1CCc2c1ccc1c2c2cc(Br)ccc2n1CCCF` [PLA1199] the “Aqueous Solubility (pH 7.4)” value ([3]; pH 7.4) was 2.3 μM, the “Aqueous Solubility Classification” value ([3]; pH 7.4) was “Low” and the “Metabolic stability, % left after 30 min” value [4, 6] was “Moderate”. The “Metabolic stability, % left after 30 min” value [4, 7] was 42%.
